Test results reported in patent US9879036B2, “Mitochondrial aldehyde dehydrogenase-2 binding compounds and methods of use thereof” (Aviv Therapeutics, Inc., priority 2014, dated 2018).
Substitutions are numbered along the chain they refer to.

Key:
Format in all cases: biochemical
ALDH2*1/*1 = target: T1, ALDH2*1/*1 (Homo sapiens, UniProt P05091); assay: ALDH2 enzymatic activity, NADH accumulation at 340 nm, acetaldehyde substrate, wild type; conditions: relative to baseline enzymatic activity (100%); for activity at 2.5 µM: 2.5 μM compound; for activity at 5 µM: 5 μM compound; for activity at 10 µM: 10 μM compound; for activity at 20 µM: 20 μM compound
T1 construct: His-tag (N); made in house; host or cells: E. coli BL21 (pTrcHis vector)
T1 sequence (P05091 18-517): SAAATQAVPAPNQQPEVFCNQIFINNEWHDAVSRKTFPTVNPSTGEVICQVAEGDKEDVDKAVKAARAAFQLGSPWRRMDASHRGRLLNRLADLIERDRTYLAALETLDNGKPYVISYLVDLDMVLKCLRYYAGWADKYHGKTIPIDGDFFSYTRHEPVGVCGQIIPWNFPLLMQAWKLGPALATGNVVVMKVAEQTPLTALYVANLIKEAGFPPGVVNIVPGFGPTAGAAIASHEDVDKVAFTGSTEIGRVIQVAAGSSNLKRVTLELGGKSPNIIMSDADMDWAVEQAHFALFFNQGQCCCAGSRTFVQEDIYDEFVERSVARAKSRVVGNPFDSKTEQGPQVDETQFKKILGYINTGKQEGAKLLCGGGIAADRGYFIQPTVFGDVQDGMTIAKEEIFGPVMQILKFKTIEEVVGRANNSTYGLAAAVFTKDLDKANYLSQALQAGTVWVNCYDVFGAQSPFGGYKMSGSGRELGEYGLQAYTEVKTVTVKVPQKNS
Experimental: (§1) ALDH2 catalyzes the oxidative reaction of substrate acetaldehyde to acetic acid using NAD^+ as a cofactor. Enzymatic activity, or catalytic rate, of aldehyde dehydrogenase (ALDH2) are measured spectrophotometrically at UV wavelength λ340 nm by the accumulation of reduced product NADH derived from NAD^+. Absorbance at λ340 nm is quantitatively proportional to the amount of NADH being produced over time (6.22 O.D. unit=1 mmol of NADH, measured in a 1-cm width standard cuvette). This method is well-established in the literature [e.g. Rex et al., Alcohol Clin. Exp. Res. 9, 147 (1985)].
as §1, with “can be” for “are”
(§2) Cloning, expression and purification of human ALDH2 wild type and ALDH2*2 recombinant mutant enzymes: Full-length wild type human ALDH2 cDNA was purchased from ATCC (No. MGC-1806. GenBank ID: BC002967). The 18-amino acid mitochondria transport signal sequence was removed by PCR and cloned into the NheI/HindIII sites of a His-tag vector, pTrcHis, using standard molecular cloning techniques. The human ALDH2* cDNA construct containing the Asian E487K mutation was obtained by site-directed mutagenesis to create the E487K substitution of the wild type ALDH2. Both human clones were designed to express a recombinant protein with the His-tag at the N-terminus of the protein. For the co-expression experiments of human ALDH2 wild type and ALDH2*2 heterotetramers, a wild type ALDH2 gene and a ALDH2 E487K gene were inserted separately into the two multiple cloning sites of pETDuet-1 vector. (Novagen, CA, USA). All the vectors were transformed into BL21 E. coli host cells and subjected to 0.5 mM IPTG induction for protein expression at 30° C. Purifications of the recombinant proteins by affinity nickel columns (HisTrap, GE Healthy Science, USA) were carried out using standard protocols according to manufacturer's instructions (Novagen, USA).
(§3) ALDH2 catalyzes the oxidative reaction of substrate acetaldehyde to acetic acid using NAD^+ as a cofactor. Enzymatic activity, or catalytic rate, of aldehyde dehydrogenase (ALDH2) can be measured spectrophotometrically at UV wavelength λ340 nm by the accumulation of reduced product NADH derived from NAD^+. Because compounds of formula (I) are considered to be agonists or “activators” of ALDH2 the enzymatic activity measured will exceed 100% of the baseline enzymatic activity of the enzyme in its normal activation state. As the concentration of the compounds of formula (I) decreases from 20 micromolar to 0.16 micromolar in the presence of ALDH, a decrease in the activation of enzymatic activity is observed for the wild-type ALDH2*1/*1 and the heterozygous form ALDH2*1/*2.

ALDH2*1/*2 = target: T2, ALDH2*1/*2 (Homo sapiens, UniProt P05091, E504K); assay: ALDH2 enzymatic activity, NADH accumulation at 340 nm, acetaldehyde substrate, heterozygous form; conditions: relative to baseline enzymatic activity (100%); for activity at 2.5 µM: 2.5 μM compound; for activity at 5 µM: 5 μM compound; for activity at 10 µM: 10 μM compound; for activity at 20 µM: 20 μM compound
T2 construct: His-tag; made in house; host or cells: E. coli BL21 (pETDuet-1 co-expression)
T2 sequence (P05091 18-517): T1 sequence (P05091 18-517)
T2 sequence (P05091 18-517 E504K): T1 sequence (P05091 18-517) with E487K
Experimental: as §1
as §1, with “can be” for “are”
as §2, §3

ALDH2 = target: T3, ALDH2 (Homo sapiens, UniProt P05091); assay: ALDH2 activity with 20 μM of the compound (Table 3); conditions: 20 μM compound
T3 construct: His-tag (N); made in house; host or cells: E. coli BL21
T3 sequence (P05091 18-517): T1 sequence (P05091 18-517)
Experimental: as §1
as §1, with “can be” for “are”
as §3

Compound	activity at 2.5 µM (ALDH2*1/*1) [%]	activity at 5 µM (ALDH2*1/*1) [%]	activity at 10 µM (ALDH2*1/*1) [%]	activity at 20 µM (ALDH2*1/*1) [%]	activity at 2.5 µM (ALDH2*1/*2) [%]	activity at 5 µM (ALDH2*1/*2) [%]	activity at 10 µM (ALDH2*1/*2) [%]	activity at 20 µM (ALDH2*1/*2) [%]	activity at 20 µM (ALDH2) [%]
COc1ccc(CNC(=O)c2cc(-c3c(CO)cccc3N(C)C)cnc2OCC2CC2)cc1F [AC15]	124	106	143	169	105	129	160	203	150 to 250
COc1ccc(CNC(=O)c2cc(-c3c(CO)cccc3N(C)C)ccc2OCC2CC2)cc1F [AC16]	106	106	105	133	104	116	126	138	100 to 150
COc1ccc(CNC(=O)c2cc(-c3cc(F)ccc3CO)ccc2OCC2CC2)cc1F [AC17]	229	262	340	318	156	173	176	195	> 250
COc1ccc(CNC(=O)c2cc(-c3cccc(F)c3CO)cnc2OCC2CC2)cc1F [AC18]	119	131	171	187	127	145	172	197	150 to 250
COc1ccc(CNC(=O)c2cc(-c3c(F)cccc3CO)cnc2OCC2CC2)cc1F [AC19]	132	143	214	236	133	163	191	230	> 250
COc1ccc(CNC(=O)c2cc(-c3cc(F)ccc3CO)cnc2OCC2CC2)cc1F [AC20]	170	238	308	403	157	218	255	93	> 250
COc1ccc(CNC(=O)c2cc(-c3cccc(F)c3CO)ccc2OCC2CC2)cc1F [AC21]	161	209	272	370	110	198	247	250	> 250
COc1ccc(CNC(=O)c2cc(-c3c(F)cccc3CO)ccc2OCC2CC2)cc1F [AC22]	172	263	313	437	160	194	253	143	> 250
COc1ccc(CNC(=O)c2cc(-c3ccc(F)cc3CO)ccc2OCC2CC2)cc1F [AC23]	210	262	291	375	187	252	263	196	> 250
COc1ccc(CNC(=O)c2cc(-c3cscc3CO)cnc2OCC2CC2)cc1F [AC24]	175	248	321	428	149	234	269	216	> 250
COc1ccc(CNC(=O)c2cc(-c3ccsc3CO)cnc2OCC2CC2)cc1F [AC25, 2-(cyclopropylmethoxy)-N-(3-fluoro-4-methoxybenzyl)-5-(2-(hydroxymethyl)thiophen-3-yl)nicotinamide]	273	341	422	382	267	321	343	260	> 250
COc1ccc(CNC(=O)c2cc(-c3sccc3CO)cnc2OCC2CC2)cc1F [AC26, 2-(cyclopropylmethoxy)-N-(3-fluoro-4-methoxybenzyl)-5-(3-(hydroxymethyl)thiophen-2-yl)nicotinamide]	199	235	352	394	188	238	261	281	> 250
COc1ccc(CNC(=O)c2cc(-c3ccsc3CO)ccc2OCC2CC2)cc1F [AC27]	293	315	379	364	323	420	419	410	> 250
COc1ccc(CNC(=O)c2cc(-c3sccc3CO)ccc2OCC2CC2)cc1F [AC28]	197	252	366	430	201	239	338	456	> 250
COc1ccc(CNC(=O)c2cc(-c3cscc3CO)ccc2OCC2CC2)cc1F [AC29]	283	334	422	445	260	349	392	423	> 250
